These results are taken from the supplement of paper PMC10307832.

What all share (test): relative viability (nuclei count vs DMSO), 5 days (fraction); higher = more cells survive
Compound in the test “Afatinib + Olaparib”: CN(C)C/C=C/C(=O)Nc1cc2c(Nc3ccc(F)c(Cl)c3)ncnc2cc1O[C@H]1CCOC1 [Afatinib] + O=C(c1cc(Cc2n[nH]c(=O)c3ccccc23)ccc1F)N1CCN(C(=O)C2CC2)CC1 [Olaparib] (partner 8 µM)
Put shortly:
(§1)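 Relative viability divides the nuclei count in treated wells by that in vehicle wells. Lung cancer cell lines were seeded in 1536-well plates, dosed by pin tool the next day, and fixed and stained after 5 days in one step with final 0.05% Triton X-100, 1% formaldehyde and 1 ug/ml Hoechst. Dosing was a single drug or a fixed anchor-drug dose plus five library-drug doses (not always all listed) in √10 steps, and values are medians of duplicate plates imaged at 4×.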

Compound in the test “Afatinib + Alpelisib”: CN(C)C/C=C/C(=O)Nc1cc2c(Nc3ccc(F)c(Cl)c3)ncnc2cc1O[C@H]1CCOC1 [Afatinib] + Cc1nc(NC(=O)N2CCC[C@H]2C(N)=O)sc1-c1ccnc(C(C)(C)C(F)(F)F)c1 [Alpelisib] (partner 2 µM)
Put shortly:
as §1

Compound in the test “Afatinib + Pemetrexed”: CN(C)C/C=C/C(=O)Nc1cc2c(Nc3ccc(F)c(Cl)c3)ncnc2cc1O[C@H]1CCOC1 [Afatinib] + Nc1nc2[nH]cc(CCc3ccc(C(=O)N[C@@H](CCC(=O)O)C(=O)O)cc3)c2c(=O)[nH]1 [Pemetrexed] (partner 0.2 µM)
Put shortly:
as §1

Compound in the test “Afatinib + Bortezomib”: CN(C)C/C=C/C(=O)Nc1cc2c(Nc3ccc(F)c(Cl)c3)ncnc2cc1O[C@H]1CCOC1 [Afatinib] + CC(C)C[C@H](NC(=O)[C@H](Cc1ccccc1)NC(=O)c1cnccn1)B(O)O [Bortezomib] (partner 0.002 µM)
Put shortly:
as §1

With NCI-H1395, the relative viability with Afatinib + Olaparib (first compound 0.005 µM) turned out to be 0.471; in the test with Afatinib + Olaparib (first compound 0.01581 µM), 0.475; with Afatinib + Olaparib (first compound 0.05 µM), 0.463; with Afatinib + Olaparib (first compound 0.1581 µM) it was 0.483; in the test with Afatinib + Olaparib (first compound 0.5 µM), 0.49; with Afatinib + Alpelisib (first compound 0.005 µM) it was 1.11. Further, the relative viability was 1.17 with Afatinib + Alpelisib (first compound 0.01581 µM); 1.08 with Afatinib + Alpelisib (first compound 0.05 µM); 1.41 in the test with Afatinib + Alpelisib (first compound 0.1581 µM); 1.29 with Afatinib + Alpelisib (first compound 0.5 µM); 0.951 with Afatinib + Pemetrexed (first compound 0.005 µM); 0.811 in the test with Afatinib + Pemetrexed (first compound 0.01581 µM). Also, the relative viability with Afatinib + Pemetrexed (first compound 0.05 µM) came to 0.827; in the test with Afatinib + Pemetrexed (first compound 0.1581 µM), 0.92; with Afatinib + Pemetrexed (first compound 0.5 µM), 0.752.

NCI-H1563: the relative viability with Afatinib + Bortezomib (first compound 0.005 µM) amounted to 0.882; with Afatinib + Bortezomib (first compound 0.01581 µM) it was 0.774; with Afatinib + Bortezomib (first compound 0.05 µM) it was 0.919; with Afatinib + Bortezomib (first compound 0.1581 µM), 0.694; in the test with Afatinib + Bortezomib (first compound 0.5 µM) it was 0.759; in the test with Afatinib + Alpelisib (first compound 0.005 µM) it was 0.953. The relative viability with Afatinib + Alpelisib (first compound 0.01581 µM) came to 0.953; with Afatinib + Alpelisib (first compound 0.05 µM), 0.87; in the test with Afatinib + Alpelisib (first compound 0.1581 µM), 0.83; in the test with Afatinib + Alpelisib (first compound 0.5 µM) it was 1.03; with Afatinib + Pemetrexed (first compound 0.005 µM), 0.782; with Afatinib + Pemetrexed (first compound 0.01581 µM), 0.719. Further, the relative viability with Afatinib + Pemetrexed (first compound 0.05 µM) was determined as 0.921; with Afatinib + Pemetrexed (first compound 0.1581 µM) it was 0.777; in the test with Afatinib + Pemetrexed (first compound 0.5 µM), 0.822.

Consider NCI-H1648, for which the relative viability is 0.978 with Afatinib + Olaparib (first compound 0.005 µM); 0.617 with Afatinib + Olaparib (first compound 0.01581 µM); 0.391 with Afatinib + Olaparib (first compound 0.05 µM); 0.323 in the test with Afatinib + Olaparib (first compound 0.1581 µM); 0.469 with Afatinib + Olaparib (first compound 0.5 µM); 0.99 with Afatinib + Pemetrexed (first compound 0.005 µM). In addition, the relative viability with Afatinib + Pemetrexed (first compound 0.01581 µM) was determined as 1.1; with Afatinib + Pemetrexed (first compound 0.05 µM) it was 0.458; with Afatinib + Pemetrexed (first compound 0.1581 µM), 0.431; with Afatinib + Pemetrexed (first compound 0.5 µM), 0.426.

As to NCI-H1650, the relative viability with Afatinib + Bortezomib (first compound 0.005 µM) was 0.222; with Afatinib + Bortezomib (first compound 0.05 µM) it was 0.204; in the test with Afatinib + Bortezomib (first compound 0.1581 µM) it was 0.241; with Afatinib + Bortezomib (first compound 0.5 µM), 0.207; with Afatinib + Olaparib (first compound 0.005 µM), 0.784; with Afatinib + Olaparib (first compound 0.01581 µM), 0.708. Besides, the relative viability came out at 0.804 with Afatinib + Olaparib (first compound 0.05 µM); 0.712 with Afatinib + Olaparib (first compound 0.1581 µM); 0.547 in the test with Afatinib + Olaparib (first compound 0.5 µM); 0.31 with Afatinib + Pemetrexed (first compound 0.005 µM); 0.291 with Afatinib + Pemetrexed (first compound 0.01581 µM); 0.344 with Afatinib + Pemetrexed (first compound 0.05 µM). Also, the relative viability with Afatinib + Pemetrexed (first compound 0.1581 µM) was determined as 0.284; in the test with Afatinib + Pemetrexed (first compound 0.5 µM), 0.3.

As to NCI-H1703, the relative viability in the test with Afatinib + Bortezomib (first compound 0.005 µM) was 0.414; with Afatinib + Bortezomib (first compound 0.01581 µM) it was 0.299; with Afatinib + Bortezomib (first compound 0.05 µM), 0.343; with Afatinib + Bortezomib (first compound 0.1581 µM), 0.288; with Afatinib + Bortezomib (first compound 0.5 µM), 0.281; in the test with Afatinib + Olaparib (first compound 0.005 µM), 0.538. The relative viability stood at 0.411 in the test with Afatinib + Olaparib (first compound 0.05 µM); 0.297 with Afatinib + Olaparib (first compound 0.1581 µM); 0.445 with Afatinib + Olaparib (first compound 0.5 µM); 0.313 with Afatinib + Alpelisib (first compound 0.005 µM); 0.322 with Afatinib + Alpelisib (first compound 0.01581 µM); 0.286 in the test with Afatinib + Alpelisib (first compound 0.05 µM). Also, the values for the relative viability with Afatinib + Alpelisib (first compound 0.1581 µM) and with Afatinib + Alpelisib (first compound 0.5 µM) were 0.278 and 0.314, respectively.

Regarding NCI-H1793, the relative viability with Afatinib + Olaparib (first compound 0.005 µM) was determined as 0.659; in the test with Afatinib + Olaparib (first compound 0.01581 µM), 0.633; in the test with Afatinib + Olaparib (first compound 0.05 µM), 0.461; in the test with Afatinib + Olaparib (first compound 0.1581 µM), 0.398; with Afatinib + Olaparib (first compound 0.5 µM), 0.582; in the test with Afatinib + Alpelisib (first compound 0.005 µM) it was 0.57. Besides, the relative viability in the test with Afatinib + Alpelisib (first compound 0.01581 µM) was found to be 0.658; with Afatinib + Alpelisib (first compound 0.05 µM), 0.555; with Afatinib + Alpelisib (first compound 0.1581 µM) it was 0.544; with Afatinib + Alpelisib (first compound 0.5 µM), 0.527; in the test with Afatinib + Pemetrexed (first compound 0.005 µM) it was 0.814; with Afatinib + Pemetrexed (first compound 0.01581 µM), 0.582. Moreover, the relative viability in the test with Afatinib + Pemetrexed (first compound 0.05 µM) was 0.584; in the test with Afatinib + Pemetrexed (first compound 0.1581 µM) it was 0.582; with Afatinib + Pemetrexed (first compound 0.5 µM) it was 0.503.

NCI-H1944: the relative viability in the test with Afatinib + Olaparib (first compound 0.005 µM) was determined as 0.384; in the test with Afatinib + Olaparib (first compound 0.01581 µM), 0.364; in the test with Afatinib + Olaparib (first compound 0.05 µM) it was 0.39; with Afatinib + Olaparib (first compound 0.1581 µM), 0.326; with Afatinib + Olaparib (first compound 0.5 µM) it was 0.332; with Afatinib + Alpelisib (first compound 0.005 µM), 0.677. For the same cell line, the relative viability in the test with Afatinib + Alpelisib (first compound 0.01581 µM) is 0.763; with Afatinib + Alpelisib (first compound 0.05 µM), 0.693; with Afatinib + Alpelisib (first compound 0.1581 µM) it was 0.465; with Afatinib + Alpelisib (first compound 0.5 µM), 0.518; with Afatinib + Pemetrexed (first compound 0.005 µM) it was 0.605; in the test with Afatinib + Pemetrexed (first compound 0.01581 µM), 0.583. Moreover, the relative viability with Afatinib + Pemetrexed (first compound 0.05 µM) was found to be 0.511; with Afatinib + Pemetrexed (first compound 0.1581 µM), 0.378; with Afatinib + Pemetrexed (first compound 0.5 µM), 0.453.

NCI-H2170: the relative viability worked out at 0.624 with Afatinib + Olaparib (first compound 0.005 µM); 0.598 with Afatinib + Olaparib (first compound 0.01581 µM); 0.475 in the test with Afatinib + Olaparib (first compound 0.05 µM); 0.169 with Afatinib + Olaparib (first compound 0.1581 µM); 0.155 with Afatinib + Olaparib (first compound 0.5 µM); 0.571 with Afatinib + Alpelisib (first compound 0.005 µM). The relative viability is 0.421 with Afatinib + Alpelisib (first compound 0.01581 µM); 0.314 in the test with Afatinib + Alpelisib (first compound 0.05 µM); 0.207 with Afatinib + Alpelisib (first compound 0.1581 µM); 0.233 with Afatinib + Alpelisib (first compound 0.5 µM); 0.251 with Afatinib + Pemetrexed (first compound 0.005 µM); 0.245 in the test with Afatinib + Pemetrexed (first compound 0.01581 µM). The relative viability with Afatinib + Pemetrexed (first compound 0.05 µM) worked out at 0.25; in the test with Afatinib + Pemetrexed (first compound 0.1581 µM), 0.214; in the test with Afatinib + Pemetrexed (first compound 0.5 µM), 0.212.

Regarding NCI-H2342, the relative viability in the test with Afatinib + Olaparib (first compound 0.005 µM) turned out to be 0.375; with Afatinib + Olaparib (first compound 0.01581 µM), 0.457; with Afatinib + Olaparib (first compound 0.05 µM) it was 0.411; with Afatinib + Olaparib (first compound 0.1581 µM), 0.347; in the test with Afatinib + Olaparib (first compound 0.5 µM) it was 0.406; with Afatinib + Pemetrexed (first compound 0.005 µM), 0.763. Also, the relative viability with Afatinib + Pemetrexed (first compound 0.01581 µM) stood at 0.762; with Afatinib + Pemetrexed (first compound 0.05 µM), 0.706; with Afatinib + Pemetrexed (first compound 0.1581 µM), 0.777; with Afatinib + Pemetrexed (first compound 0.5 µM), 0.747.

In the case of SK-MES-1, the relative viability with Afatinib + Olaparib (first compound 0.005 µM) came to 0.682; with Afatinib + Olaparib (first compound 0.01581 µM) it was 0.489; with Afatinib + Olaparib (first compound 0.05 µM), 0.325; with Afatinib + Olaparib (first compound 0.1581 µM) it was 0.334; in the test with Afatinib + Olaparib (first compound 0.5 µM) it was 0.404; in the test with Afatinib + Alpelisib (first compound 0.005 µM), 0.823. For the same cell line, the relative viability with Afatinib + Alpelisib (first compound 0.01581 µM) stood at 0.653; with Afatinib + Alpelisib (first compound 0.05 µM) it was 0.396; with Afatinib + Alpelisib (first compound 0.1581 µM), 0.309; with Afatinib + Alpelisib (first compound 0.5 µM), 0.32; with Afatinib + Pemetrexed (first compound 0.005 µM), 0.386; in the test with Afatinib + Pemetrexed (first compound 0.01581 µM), 0.707. Moreover, the results for the relative viability with Afatinib + Pemetrexed (first compound 0.05 µM), in the test with Afatinib + Pemetrexed (first compound 0.1581 µM) and with Afatinib + Pemetrexed (first compound 0.5 µM) were 0.472, 0.438 and 0.434, respectively.
